Common to all, as to format: cell-based, Pseudomonas aeruginosa
For one assay, the system named is P. aeruginosa PA018R. Kind of assay: checkerboard titration, gemifloxacin and imipenem (MIC, FIC). The conditions noted are these: for MIC: Pseudomonas aeruginosa, alone. As to the method: (§1) The combined effect of gemifloxacin and imipenem was investigated in P. aeruginosa by using a checkerboard titration method. The test organisms used in this study were all clinical isolates collected in Korea. The isolates were maintained frozen at −70° C. prior to testing.
(§2) Gemifloxacin was tested at 12 concentrations (0.016-32 μg/ml) and imipenem was tested at 11 concentrations (0.016-16 μg/ml). Gemifloxacin was dispensed alone in the first row and combined with imipenem in the remaining rows. Imipenem solution was also dispensed alone in the first row in the first column. Test strains were grown for 18 h in Mueller-Hinton Broth, and then these overnight cultures were diluted with the same fresh medium to the density of approximately 10^7 CFU/mL. The bacterial concentrations were determined by measuring optical density or turbidity of the suspension and were verified by standard colony counts on antibiotic-free agar plates. A diluted bacterial solution was applied to plates containing serially diluted antimicrobial agents to yield 5×10^5 CFU/mL. Plates were incubated at 35° C. for 18 hours.
(§3) Minimal inhibitory concentrations (MICs) for each separate drug were determined. For wells along the growth-no growth interface, synergy was determined by calculating the Fractional Inhibitory Concentration (FIC) index. The Fractional Inhibitory Concentration (FIC) indices were calculated using the following formula: FIC index=FICA+FICB=[A]/MICA+[B]/MICB Wherein: • FICA(or B), is the FIC of drug A (or B) • MICA (or B) is the MIC of the organism to drug A (or B) • A (or B) is concentration of drug A (or B) that is the lowest inhibitory concentration
(§4) The FIC indices were interpreted using the following criteria: • ≦0.5=Synergy; • >0.5-1.0=Additive; • >1.0-4.0=Indifference; • >4.0=Antagonism

The next assay deals with P. aeruginosa 6168. Described as above. The conditions noted are these: for MIC: Pseudomonas aeruginosa, alone. As to the method:
as §1, §2, §3, §4

The next assay concerns P. aeruginosa 6140. Described as above. As to conditions: for MIC: Pseudomonas aeruginosa, alone. The method, then:
as §1, §2, §3, §4

For a further assay, the system named is P. aeruginosa ATCC 27853. The experiment in a line: checkerboard titration, gemifloxacin and meropenem (MIC, FIC). The conditions noted are these: for MIC: Pseudomonas aeruginosa. The method, then:
Evaluation for synergistic activity was carried out by calculation of fractional inhibitory concentrations (FICs) according to the method of Eliopoulos et al (1996, Antimicrobial Combinations, Antibiotics in Laboratory Medicine, Victor Lorian, 4th Edition, pp 337-338, Baltimore, Md., Williams and Wilkins).
P. aeruginosa ATCC 27853 was obtained from the SmithKline Beecham Anti-Infectives Research Culture Collection and stored at −80° C. in 10% glycerol. Before testing, the isolate was passaged onto agar plates (trypticase soy agar containing 5% sheeps blood) from the frozen stock for two consecutive days. Cation adjusted Mueller Hinton broth (BBL, Cockeyville, Md.) was used for the isolate.
Checkerboard microtitre broth dilution plates were prepared using the Hamilton MicroLab AT Plus system (Reno, Nev.). Two-fold serial dilutions (50 μl) of meropenem were made in columns 1 through 11 of a microtitre plate. Two-fold serial dilutions of gemifloxicin were prepared manually and the MicroLab AT Plus was used to dispense 25 μl of gemifloxacin at each concentration into rows A through G of the microtitre plate. The concentration range tested varied for each drug/organism combination to encompass the MIC endpoints of the individual components. Column 12 contained two fold serial dilutions of gemifloxacin only, and row H contained two fold serial dilutions of meropenem only. The last well (H) in column 12 was used as a positive growth control well, containing only medium and test isolate.
The bacteria were diluted to a 0.5 McFarland standard and then further diluted 1/50. Each well was inoculated with 25 μl of the isolate to give a final inoculum density of approximately 5×10^5 cfu/ml. The MicroLab AT Plus 2 was used to add the inoculum to the microtitre plates. After inoculation, the plates were covered with a 96 well microtitre plate lid and incubated at 35° C. in ambient air for 20-24 hours. A 10 μl aliquot of the inoculum was plated on trypticase soy agar containing 5% sheep blood to determine the purity of the final test inoculum.
Following incubation, a microtitre mirror reader (Cooke Instruments Ltd., England) was used to assist in determining the microdilution MIC endpoints. The MIC was determined as the lowest concentration of compound that inhibited visible growth of the organism.
The Fractional Inhibitory Concentrations (FICs) were calculated using the following formula: (A)/(MIC A)+(B)/(MIC B)=FIC A+FIC B=FIC Index wherein: • A is the MIC of drug A in the presence of drug B • B is the MIC of drug B in the presence of drug A • MIC A is the MIC of the organism to drug A alone • MIC B is the MIC of the organism to drug B alone • FIC A is the fractional inhibitory concentration of drug A • FIC B is the fractional inhibitory concentration of drug B

The mark [1] stands for this setting: gemifloxacin in combination with imipenem.
Where [2] appears, read: imipenem in combination with gemifloxacin.

Read-outs that look alike come from different tables or passages of the source.

One may read the MIC as the lowest concentration found to suppress growth. Turning to `CO/N=C1\CN(c2nc3c(cc2F)c(=O)c(C(=O)O)cn3C2CC2)CC1CN` (racemic) [gemifloxacin, (R,S)-7-(3-aminomethyl-4-methoxyiminopyrrolidin-1-yl)-1-cyclopropyl-6-fluoro-4-oxo-1,4-dihydro-1,8-naphthyridine-3-carboxylic acid], the FICA amounted to 0.25 with P. aeruginosa PA018R (FIC of gemifloxacin), 0.13 in the assay with P. aeruginosa 6168 (FIC of gemifloxacin) and 0.25 in the assay on P. aeruginosa 6140 (FIC of gemifloxacin). For the same compound, the MIC in the assay with P. aeruginosa PA018R (read-out: gemifloxacin MIC) came to 4 µg/mL; in the assay on P. aeruginosa 6168 (read-out: gemifloxacin MIC) it was 0.5 µg/mL; in the assay with P. aeruginosa 6140 (read-out: gemifloxacin MIC), 8 µg/mL; with P. aeruginosa ATCC 27853 (ATCC27853, in the presence of meropenem 0.125 μg/ml, read-out: gemifloxacin MIC), 0.125 µg/mL. Besides, the “Cgemifloxacin MIC” value was 1 µg/mL in the assay with P. aeruginosa PA018R (setting [1]), 0.0625 µg/mL in the assay with P. aeruginosa 6168 (setting [1]) and 2 µg/mL with P. aeruginosa 6140 (setting [1]). For the same compound, the gemifloxacin MIC in the assay with P. aeruginosa ATCC 27853 (gemifloxacin alone) is 0.5 µg/mL.

Turning to `C[C@@H](O)[C@H]1C(=O)N2C(C(=O)O)=C(SCCN=CN)C[C@H]12` [imipenem], the FICB in the assay on P. aeruginosa PA018R (FIC of imipenem) came to 0.06; in the assay with P. aeruginosa 6168 (FIC of imipenem), 0.25; in the assay on P. aeruginosa 6140 (FIC of imipenem), 0.25. The MIC is 16 µg/mL in the assay on P. aeruginosa PA018R (read-out: imipenem MIC), 1 µg/mL in the assay on P. aeruginosa 6168 (read-out: imipenem MIC) and 4 µg/mL in the assay with P. aeruginosa 6140 (read-out: imipenem MIC). In addition, the “Cimipenem MIC” value in the assay with P. aeruginosa PA018R (setting [2]) amounted to 1 µg/mL; in the assay on P. aeruginosa 6168 (setting [2]) it was 0.25 µg/mL; in the assay with P. aeruginosa 6140 (setting [2]), 1 µg/mL.

As for `C[C@@H](O)[C@H]1C(=O)N2C(C(=O)O)=C(S[C@@H]3CN[C@H](C(=O)N(C)C)C3)[C@H](C)[C@H]12` [meropenem], in the assay with P. aeruginosa ATCC 27853 (ATCC27853, in the presence of gemifloxacin 0.125 μg/ml, read-out: meropenem MIC), the MIC worked out at 0.125 µg/mL. In addition, the meropenem MIC with P. aeruginosa ATCC 27853 (meropenem alone) is 0.5 µg/mL.

Values taken from US20050020567A1, “Method of treating bacterial infections using gemifloxacin or a salt thereof and a carbapenem antibacterial agent” (priority 2002, published 2005).
